Patent US11040101B2, “Nanoparticles for cancer therapy and diagnosis” (UCL BUSINESS PLC, priority 2019, dated 2021)

Target: cathepsin B (Homo sapiens, UniProt P07858)
Experiment: Time-dependent fluorescence emission of ICG systems with or without cathepsin B
Assay type: biochemical
Conditions: after 24 h at 37° C. in PBS
Procedure: The equivalent ICG concentration in all systems was 6 μg/mL. Fluorescence emission spectra of these systems were acquired over the course of 48 h. The excitation wavelength of 740 nm was used to obtain the fluorescence spectra. For the afore-mentioned experiments, spectra and fluorescence intensities were obtained using a CLARIOstar® High Performance Monochromator Multimode microplate reader (BMG LABTECH, UK).

CC1(C)C(/C=C/C=C/C=C/C=C2\N(CCCCS(=O)(=O)O)c3ccc4ccccc4c3C2(C)C)=[N+](CCCCS(=O)(=O)[O-])c2ccc3ccccc3c21 [free ICG, Indocyanine green]
fluorescence emission of free ICG: suppressed
